We go through 33 compounds from patent US10669283B2, “Compound and pharmacologically acceptable salt thereof” (MEIJI SEIKA PHARMA CO., LTD., priority 2016, dated 2020).

The structures appear in SMILES notation.

One assay has as its system PDE4. The assay can be described thus: PDE4 inhibition, scintillation proximity assay (SPA).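 For PDE4 Inhibitory Activity (concentration for the inhibition rate of 50%): A below 100 nM B 100 to below 1000 nM C 1000 nM or more.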 The assay is classed as biochemical. To be noted: scintillation proximity assay (SPA); evaluated as classes A, B, C; read-out: PDE4 Inhibitory Activity (concentration for the inhibition rate of 50%). The method in brief:
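Compound pre-diluted 1:10 in 50 mM Tris-HCl pH 7.4, 8.3 mM MgCl2, 1.7 mM EGTA, 3 mg/mL BSA, then incubated with PDE4 and [2,8-3H]-cAMP for 120 min at room temperature. Product captured on ZnSO4-containing YSi-SPA beads for 15 min; radioactivity counted against no-enzyme blank and DMSO control.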
For `O=S1(=O)CCC(Oc2ccc(-c3nccs3)c3oc(N4CC5CC(C4)N5)nc23)CC1` [Example 314, 4-((2-(3,6-Diazabicyclo[3.1.1]heptan-3-yl)-7-(thiazol-2-yl)benzo[d]oxazol-4-yl)oxy)tetrahydro-2H-thiopyran 1,1-dioxide], the IC50 is under 100 nM.

Consider `OCC(F)(F)Oc1ccc(-n2cccn2)c2oc(N3CC4CC(C3)N4)nc12` [Example 320, 2-((2-(3,6-Diazabicyclo[3.1.1]heptan-3-yl)-7-(1H-pyrazol-1-yl)benzo[d]oxazol-4-yl)oxy)-2,2-difluoroethan-1-ol], for which the IC50 was under 100 nM.

The same assay, now with this note: scintillation proximity assay; class symbols; read-out: PDE4 Inhibitory Activity.
With `c1csc(-c2ccc(C3CC3)c3nc(N4CC5CC(C4)N5)oc23)n1` [Example 344, 2-(3,6-diazabicyclo [3.1.1]heptan-3-yl)-4-cyclopropyl-7-(thiazol-2-yl)benzo[d] oxazole], the IC50 is under 100 nM.

Take `CSc1ccc(-c2nccs2)c2oc(N3CC4CC(C3)N4)nc12` [Example 345, 2-(3,6-diazabicyclo[3.1.1]heptan-3-yl)-4-(methylthio)-7-(thiazol-2-yl)benzo [d]oxazole]: the IC50 is under 100 nM.

For `C=CC(F)(F)Oc1ccc(-c2nccs2)c2oc(N3CC4CC(C3)N4)nc12` [Example 351, 2-(3,6-diazabicyclo[3.1.1]heptan-3-yl)-4-((1,1-difluoroallyl)oxy)-7-(thiazol-2-yl)benzo[d] oxazole], the IC50 is under 100 nM.

As to `O=C(NCc1ccccc1)c1ccc(-c2nccs2)c2oc(N3CC4CC(C3)N4)nc12` [Example 361, N-benzyl-2-(3,6-diazabicyclo [3.1.1]heptan-3-yl)-7-(thiazol-2-yl) benzo oxazole-4-carboxamide], the IC50 is under 100 nM.

Turning to `CC(C)C(O)C(F)(F)Oc1ccc(-c2nccs2)c2oc(N3CC4CC(C3)N4)nc12` (stereo not drawn) [Example 362, 1-((2-(3,6-diazabicyclo [3.1.1]heptan-3-yl)-7-(thiazol-2-yl)benzo[d]oxazol-4-yl)oxy)-1,1-difluoro-3-methylbutan-2-ol], the IC50 is under 100 nM.

In the case of `O=C(O)c1ccc(-c2nccs2)c2oc(N3CC4CC(C3)N4)nc12` [Example 366, 2-(3,6-diazabicyclo [3.1.1]heptan-3-yl)-7-(thiazol-2-yl)benzo[d] oxazole-4-carboxylic acid], the IC50 lay within 100 to 1000 nM.

Turning to `O=C(NO)c1ccc(-c2nccs2)c2oc(N3CC4CC(C3)N4)nc12` [Example 367, 2-(3,6-diazabicyclo[3.1.1]heptan-3-yl)-N-hydroxy-7-(thiazol-2-yl)benzo[d] oxazole-4-carboxamide], the IC50 is under 100 nM.

For the compound `CC(C)(O)c1cc(-c2nccs2)c2oc(N3CC4CCC(C3)N4O)nc2c1OC(F)(F)F` [Example 368, 3-(5-(2-hydroxy-propan-2-yl)-7-(thiazol-2-yl)-4-(trifluoromethoxy)benzo[d]oxazol-2-yl)-3,8-diazabicyclo [3.2.1]octan-8-ol], the IC50 was in the range of 100 to 1000 nM.

Turning to `CC(C)(O)C(F)(F)Oc1ccc(-c2nccs2)c2oc(N3CC4CC(C3)N4O)nc12` [Example 371, 3-(4-(1,1-difluoro-2-hydroxy-2-methylpropoxy)-7-(thiazol-2-yl)benzo[d]oxazol-2-yl)-3,6-diazabicyclo [3.1.1]heptan-6-ol], the IC50 was under 100 nM.

Consider `ON1C2CCC1CN(c1nc3c(OC(F)(F)F)c(Cl)cc(-c4nccs4)c3o1)C2` [Example 375, 3-(5-chloro-7-(thiazol-2-yl)-4-(trifluoro-methoxy)benzo[d]oxazol-2-yl)-3,8-diazabicyclo[3.2.1] octan-8-ol], for which the IC50 is under 100 nM.

Regarding `CC(O)(O)C(F)(F)Oc1ccc(-c2nccs2)c2oc(N3CC4CC(C3)N4)nc12` [Example 377, 1-((2-(3,6-diazabicyclo[3.1.1]heptan-3-yl)-7-(thiazol-2-yl)benzo[d]oxazol-4-yl)oxy)-1,1-difluoropropane-2,2-diol], the IC50 is under 100 nM.

`OC(c1ccc(-c2nccs2)c2oc(N3CC4CCC(C3)N4O)nc12)C(F)(F)F` (stereo not drawn) [Example 378, 3-(7-(thiazol-2-yl)-4-(2,2,2-trifluoro-1-hydroxyethyl)benzo[d]oxazol-2-yl)-3,8-diazabicyclo[3.2.1] octan-8-ol]: the IC50 lay within 100 to 1000 nM.

Turning to `OC(c1ccc(-c2nccs2)c2oc(N3CC4CCC(C3)N4O)nc12)C(F)(F)F` (stereo not drawn) [Example 379, 3-(7-(thiazol-2-yl)-4-(2,2,2-trifluoro-1-hydroxyethyl)benzo[d]oxazol-2-yl)-3,8-diaza-bicyclo[3.2.1] octan-8-ol], the IC50 was under 100 nM.

In the case of `ON1C2CC1CN(c1nc3c(OC(F)(F)F)ccc(-c4nccs4)c3o1)C2` [Example 380, 3-(7-(thiazol-2-yl)-4-(trifluoro-methoxy)benzo[d]oxazol-2-yl)-3,6-diazabicyclo [3.1.1]heptan-6-ol], the IC50 is under 100 nM.

`CC(C)(O)c1cc(-c2nccs2)c2oc(N3CC4CCC(C3)N4O)nc2c1C(F)(F)F` [Example 381, 3-(5-(2-hydroxy-propan-2-yl)-7-(thiazol-2-yl)-4-(trifluoromethyl)benzo[d]oxazol-2-yl)-3,8-diaza-bicyclo[3.2.1] octan-8-ol]: the IC50 was over 1000 nM.

As for `CC(O)c1cc(-c2nccs2)c2oc(N3CC4CCC(C3)N4O)nc2c1OC(F)(F)F` (stereo not drawn) [Example 383, 3-(5-(1-hydroxy-ethyl)-7-(thiazol-2-yl)-4-(trifluoro-methoxy)benzo [d]oxazol-2-yl)-3,8-diazabicyclo[3.2.1] octan-8-ol], the IC50 was over 1000 nM.

`CC(O)c1cc(-c2nccs2)c2oc(N3CC4CCC(C3)N4O)nc2c1C(F)(F)F` (stereo not drawn) [Example 384, 3-(5-(1-hydroxy-ethyl)-7-(thiazol-2-yl)-4-(trifluoro-methyl)benzo[d]oxazol-2-yl)-3,8-diazabicyclo[3.2.1] octan-8-ol]: the IC50 is over 1000 nM.

Take `CNS(=O)(=O)c1ccc(-c2nccs2)c2oc(N3CC4CC(C3)N4)nc12` [Example 386, 2-(3,6-diazabicyclo[3.1.1]heptan-3-yl)-N-methyl-7-(thiazol-2-yl)benzo[d] oxazole-4-sulfonamide]: the IC50 was under 100 nM.

As to `CN(C)S(=O)(=O)c1ccc(-c2nccs2)c2oc(N3CC4CC(C3)N4)nc12` [Example 388, 2-(3,6-diazabicyclo[3.1.1]heptan-3-yl)-N,N-dimethyl-7-(thiazol-2-yl)benzo [d]oxazole-4-sulfonamide], the IC50 is under 100 nM.

As for `CN(CCO)S(=O)(=O)c1ccc(-c2nccs2)c2oc(N3CC4CC(C3)N4)nc12` [Example 389, 2-(3,6-diazabicyclo[3.1.1]heptan-3-yl)-N-(2-hydroxyethyl)-N-methyl-7-(thiazol-2-yl)benzo[d] oxazole-4-sulfonamide], the IC50 was under 100 nM.

In the case of `O=S(=O)(c1ccc(-c2nccs2)c2oc(N3CC4CC(C3)N4)nc12)N1CCCC1` [Example 390, 2-(3,6-diazabicyclo[3.1.1]heptan-3-yl)-4-(pyrrolidin-1-yl-sulfonyl)-7-(thiazol-2-yl)benzo [d]oxazole], the IC50 is under 100 nM.

Take `COC(C)(C)C(F)(F)Oc1ccc(-c2nccs2)c2oc(N3CC4CC(C3)N4)nc12` [Example 393, 2-(3,6-diazabicyclo[3.1.1]heptan-3-yl)-4-(1,1-difluoro-2-methoxy-2-methylpropoxy)-7-(thiazol-2-yl) benzo[d]oxazole]: the IC50 was under 100 nM.

Turning to `NS(=O)(=O)c1ccc(-c2nccs2)c2oc(N3CC4CC(C3)N4)nc12` [Example 396, 2-(3,6-diazabicyclo[3.1.1]heptan-3-yl)-7-(thiazol-2-yl) benzo[d]oxazole-4-sulfonamide], the IC50 is under 100 nM.

As to `O=S1(=O)CCN(c2ccc(-c3nccs3)c3oc(N4CC5CC(C4)N5)nc23)CC1` [Example 398, 4-(2-(3,6-diazabicyclo[3.1.1]heptan-3-yl)-7-(thiazol-2-yl)benzo[d]oxazol-4-yl)thiomorpholine 1,1-dioxide], the IC50 is under 100 nM.

For the compound `CCC(F)(F)Oc1ccc(-c2nccs2)c2oc(N3CC4CC(C3)N4)nc12` [Example 402, 2-(3,6-diazabicyclo [3.1.1]heptan-3-yl)-4-(1,1-difluoro-propoxy)-7-(thiazol-2-yl) benzo[d] oxazole], the IC50 was under 100 nM.

`FC(F)(Oc1ccc(-c2nccs2)c2oc(N3CC4CC(C3)N4)nc12)c1nc2ccccc2o1` [Example 403, 4-(benzo [d]oxazol-2-yldifluoro-methoxy)-2-(3,6-diazabicyclo [3.1.1]heptan-3-yl)-7-(thiazol-2-yl)benzo[d] oxazole]: the IC50 is under 100 nM.

For `FC(F)(/C=C/c1cccnc1)Oc1ccc(-c2nccs2)c2oc(N3CC4CC(C3)N4)nc12` [Example 406, (E)-2-(3,6-diazabicyclo [3.1.1]heptan-3-yl)-4-((1,1-difluoro-3-(pyridin-3-yl)allyl)oxy)-7-(thiazol-2-yl) benzo[d] oxazole], the IC50 was under 100 nM.

For the compound `CN(CCO)C(=O)C(F)(F)Oc1ccc(-c2nccs2)c2oc(N3CC4CC(C3)N4)nc12` [Example 407, 2-((2-(3,6-diazabicyclo [3.1.1]heptan-3-yl)-7-(thiazol-2-yl)benzo[d]oxazol-4-yl)oxy)-2,2-difluoro-N-(2-hydroxy-ethyl)-N-methyl-acetamide], the IC50 is under 100 nM.

Take `CN(C)C(=O)C(F)(F)Oc1ccc(-c2nccs2)c2oc(N3CC4CC(C3)N4)nc12` [Example 408, 2-((2-(3,6-diazabicyclo [3.1.1]heptan-3-yl)-7-(thiazol-2-yl)benzo[d]oxazol-4-yl)oxy)-2,2-difluoro-N,N-dimethyl-acetamide]: the IC50 was under 100 nM.

For the compound `c1csc(-c2ccc(C3CCC3)c3nc(N4CC5CC(C4)N5)oc23)n1` [Example 414, 2-(3,6-diazabicyclo[3.1.1]heptan-3-yl)-4-cyclobutyl-7-(thiazol-2-yl)benzo[d]oxazole], the IC50 is under 100 nM.

`c1csc(-c2ccc(N3CCCC3)c3nc(N4CC5CC(C4)N5)oc23)n1` [Example 415, 2-(3,6-diazabicyclo[3.1.1]heptan-3-yl)-4-(pyrrolidin-1-yl)-7-(thiazol-2-yl)benzo [d]oxazole]: the IC50 is under 100 nM.
